Assay results published in patent publication US7563951B2, “Soybean seeds and plants exhibiting natural herbicide resistance” (Natural Genes, Inc., priority 2002, dated 2009).

Test system: soybean seeds
Experiment: Seed pre-soak in 2 percent aqueous glyphosate, then planting and observing germination
Format: in vivo, Glycine max L.
Conditions: six hour soak at room temperature, observed three weeks
Excerpt: The identification of soybean germplasm within which naturally-occurring herbicide resistance genes reside involved the screening of thirty-four soybean lines obtained from publicly-available seed stocks. The initial step in the screening was to pre-soak individual batches of seeds representing the thirty-four test lines in a 2 percent aqueous solution of glyphosate at room temperature. The individual batches of seeds were immersed in this 2 percent solution for a period of six hours. […] This screening step was essential to determine how seeds responded to the herbicide. Twelve of the varieties were present as approximately 2,500 seeds. There were approximately 5,000 seeds of the remaining 22 varieties. Each variety was immersed in separate containers to assure variety identification and isolation. The varieties that were tested are identified in Table 1.
After this initial pre-soak, each lot of seeds was labeled and was placed in a flat (36″×18″×9″) containing a soil/peat mixture growth medium, with the mixture being 50 percent top soil (sandy loam) and 50 percent peat moss, that was provided at a depth of 9 inches. […]
Germination and emergence of any seedlings was then observed for the next three weeks. […] Of these five lines, the ‘Dwight’ and ‘Jack’ varieties were chosen for further screening using large quantities of seeds.

SMILES: O=C(O)CNCP(=O)(O)O [glyphosate, N-(phosphonomethyl)glycine]
- Germination of herbicide-treated soybean seeds: failed to germinate
